Data as given in US11065265B2, “Compositions of fosaprepitant and methods of preparation” (SPES PHARMACEUTICALS INC., priority 2018, dated 2021).

Legend:
[1] = Solubility enhancing effect of cyclodextrin derivative on aprepitant in aqueous medium; assay type: physicochemical
[2] = cited from earlier work

Structure (SMILES): C[C@@H](O[C@H]1OCCN(Cc2n[nH]c(=O)[nH]2)[C@H]1c1ccc(F)cc1)c1cc(C(F)(F)F)cc(C(F)(F)F)c1 [Aprepitant]
- Increase in Aprepitant Solubility ([1]; Cyclodextrin Derivative 0 mg/mL): 0%
- Increase in Aprepitant Solubility ([1]; Cyclodextrin Derivative 32 mg/mL): 105%
- Increase in Aprepitant Solubility ([1]; Cyclodextrin Derivative 64 mg/mL): 300%
- Increase in Aprepitant Solubility ([1]; Cyclodextrin Derivative 128 mg/mL): 748%
- Increase in Aprepitant Solubility ([1]; Cyclodextrin Derivative 160 mg/mL): 1039%
- Increase in Aprepitant Solubility ([1]; Cyclodextrin Derivative 180 mg/mL): 1244%
- Increase in Aprepitant Solubility ([1]; Cyclodextrin Derivative 200 mg/mL): 1322%
- Increase in Aprepitant Solubility ([1]; Cyclodextrin Derivative 255 mg/mL): 1717%
- solubility in non-polar solvents such as oils ([2]; non-polar solvents such as oils): reasonably high
- solubility in water ([2]; water): very limited
